According to patent US8754057B2, “Inhibition of apoptosis-specific eIF-5A(eIF-5A1″) with antisense oligonucleotides and siRNA as anti-inflammatory therapeutics” (Senesco Technologies, Inc., priority 2003, dated 2014):
*1 amine or outer side, *2 acyl side, *3 side chain or, on linkers, in order; H or OH if unused. Where a SMILES comes first, the peptide text is derived from it. Bridges are numbered along the chain shown (N, C = ends). Roman numbers before positions name the chains, in order. [ ]: non-standard residue; d: D form. Actinocin(9to1) = Cc1c2oc3c(C)ccc(C(=O)[*:1])c3nc-2c(C(=O)[*:2])c(N)c1=O; NMeV = CN[C@H](C(=O)O)C(C)C; Sar = CNCC(=O)O

Columns and labels:
Type in all cases: cell-based, human
RKO cells = assay: Western blots of RKO cells treated with Actinomycin D; settings: 0.25 μg/ml Actinomycin D for 0, 3, 7, 24, and 48 hours
Description: FIG. 43 provides Western blots of protein extracted from RKO cells treated with 0.25 μg/ml Actinomycin D for 0, 3, 7, 24, and 48 hours. The top panel depicts a Western blot using anti-p53 as the primary antibody. The middle panel depicts a Western blot using anti-apoptosis-specific eIF-5A as the primary antibody.

[1] = system: lamina cribrosa cell line #506; settings: 48 hours; Hoescht staining
Description: FIG. 83 is a graph showing percent apoptosis of lamina cribrosa cell line #506 in response to treatment with camptothecin and TNF-α. Lamina cribrosa cell line #506 cells were seeded at 40,000 cells per well onto an 8-well culture slide. Three days later the confluent LC cells were treated with either 10 ng/ml TNF-α, 50 μM camptothecin, or 10 ng/ml TNF-α plus 50 μM camptothecin. An equivalent volume of DMSO, a vehicle control for camptothecin, was added to the untreated control cells. The cells were stained with Hoescht 33258 48 hours after treatment and viewed by fluorescence microscopy using a UV filter. Cells with brightly stained condensed or fragmented nuclei were counted as apoptotic.
Apoptosis was induced in lamina cribrosa cells using a combination of 50 μM camptothecin (Sigma) and 10 ng/ml TNF-α (Leinco Technologies).
Since TNF-α is believed to play an important role during the glaucomatous process, the susceptibility of LC cells to the cytotoxic effects of TNF-α was examined. Confluent LC cells were exposed to either camptothecin, TNF-α, or a combination of camptothecin and TNF-α for 48 hours (FIG. 83).

[2] = system: apoptosis-specific eIF-5A; assay: Western blot of HT-29 cells treated with IFN gamma; settings: at 8 hours
Description: FIG. 81 is a western blot of HT-29 cells treated with IFN gamma for 8 and 24 hours.
Priming the cells with interferon gamma prior to TNF treatment causes the cells to produce more IL-8 than either treatment alone. This may be due to the known upregulation of the TNF receptor 1 in response to interferon, so ‘priming’ the cells with interferon allows them to respond to TNF better since the cells have more receptors. siRNA against apoptosis-specific eIF-5A had no effect on IL-8 production in response to TNF alone (previous experiment) however, the siRNA blocked almost all IL-8 produced in response to interferon as well as a significant amount of the IL-8 produced as a result of the combined treatment of interferon and TNF. […] FIG. 81 is a western showing up-regulation (4 fold at 8 hours) of apoptosis-specific eIF-5A in response to interferon gamma in HT-29 cells.

[3] = system: lamina cribrosa cell line #506; assay: Hoescht staining apoptosis of siRNA-transfected lamina cribrosa cells treated with TNF-α and camptothecin; settings: LC #506, 72 h after siRNA transfection, 24 h 10 ng/ml TNF-α plus 50 μM camptothecin
Description: Lamina cribrosa cell line #506 cells were seeded at 7500 cells per well onto an 8-well culture slide. Three days later the LC cells were transfected with either GAPDH siRNA, apoptosis-specific eIF-5A siRNAs #1-4 (SEQ ID NO:30-33), or control siRNA #5 (SEQ ID NO:34). 72 hours after transfection, the transfected cells were treated with 10 ng/ml TNF-α plus 50 μM camptothecin. Twenty-four hours later the cells were stained with Hoescht 33258 and viewed by fluorescence microscopy using a UV filter. Cells with brightly stained condensed or fragmented nuclei were counted as apoptotic. This graph represents the average of n=4 independent experiments.
Following transfection, RKO and lamina cribrosa cells were incubated for 72 hours prior to collection of cellular extract for Western blot analysis. In order to determine the effectiveness of the siRNAs directed against apoptosis-specific eIF-5A to block apoptosis, lamina cribrosa cells were treated with 50 μM of camptothecin (Sigma) and 10 ng/ml of TNF-α (Leinco Technologies) to induce apoptosis either 48 or 72 hours after transfection. The cells were stained with Hoescht either 24 or 48 hours later in order to determine the percentage of cells undergoing apoptosis.
Small inhibitory RNAs (siRNAs) directed against human apoptosis-specific eIF-5A were used to specifically suppress expression of eIF5A in lamina cribrosa cells. Six siRNAs were generated by in vitro transcription using the Silencer™ siRNA Construction Kit (Ambion Inc.), Four siRNAs were generated against human apoptosis-specific eIF-5A (siRNAs #1 to #4). […] The siRNAs were generated according to the manufacturer's protocol. The eIF5A and control siRNA targets had the following sequences: siRNA #1 5′ […] 3′ (SEQ ID NO: 81); siRNA #2 5′ […] 3′ (SEQ ID NO: 82); siRNA #3 5′ […] 3′ (SEQ ID NO: 83); siRNA #4 5′ […] 3′ (SEQ ID NO: 84); siRNA #5′ […] 3′ (SEQ ID NO: 85). Lamina cribrosa cells were transfected with siRNA using LipofectAMINE 2000.
Lamina cribrosa cells were transfected when cell confluence was at 40 to 70% and were generally seeded onto 8-well culture slides at 7500 cells per well three days prior to transfection. Transfection medium sufficient for one well of an 8-well culture slide was prepared by diluting 25.5 proles of siRNA to a final volume of 21.2 μl in Opti-Mem (Sigma). 0.425 μl of Lipofectamine 2000 was diluted to a final volume of 21.2 μl in Opti-Mem and incubated for 7 to 10 minutes at room temperature. The diluted Lipofectamine 2000 mixture was then added to the diluted siRNA mixture and incubated together at room temperature for 20 to 30 minutes, The cells were washed once with serum-free media before adding 135 μl of serum-free media to the cells and overlaying 42.4 μl of transfection medium. […]

[4] = system: lamina cribrosa cell line #506; assay: TUNEL labeling of siRNA-transfected LC cells treated with TNF-α and camptothecin; settings: LC #506, TNF-α and camptothecin 24 h
Description: Lamina cribrosa cell line #506 cells were seeded at 7500 cells per well onto an 8-well culture slide. Three days later the LC cells were transfected with either apoptosis-specific eIF-5A siRNA #1 (SEQ ID NO:30) or control siRNA #5 (SEQ ID NO:34). 72 hours after transfection, the transfected cells were treated with 10 ng/ml TNF-α plus 50 μM camptothecin. Twenty-four hours later the cells were stained with Hoescht 33258 and DNA fragmentation was evaluated in situ using the terminal deoxynucleotidyl transferase-mediated dUTP-digoxigenin nick end labeling (TUNEL) method. Panel A represents the slide observed by fluorescence microscopy using a fluorescein filter to visualize TUNEL-labeling of the fragmented DNA of apoptotic cells. Panel B represents the same slide observed by through a UV filter to visualize the Hoescht-stained nuclei. The results are representative of two independent experiments. All pictures were taken at 400 times magnification.
Transfected cells that had been treated with TNF-α and camptothecin for 24 hours were stained with Hoescht 33258 in order to determine the percentage of cells undergoing apoptosis. Briefly, cells were fixed with a 3:1 mixture of absolute methanol and glacial acetic acid and then incubated with Hoescht stain (0.5 μg/ml Hoescht 33258 in PBS). After a 10 minute incubation in the dark, the staining solution was discarded, the chambers separating the wells of the culture slide were removed, and the slide was washed 3 times for 1 minute with deionized water. After washing, a few drops of Mcllvaine's buffer (0.021 M citric acid, 0.058 M Na2HPO4.7H2O; pH 5.6) was added to the cells and overlaid with a coverslip. The stained cells were viewed under a fluorescent microscope using a UV filter. Cells with brightly stained or fragmented nuclei were scored as apoptotic. A minimum of 200 cells were counted per well. The DeadEnd™ Fluorometric TUNEL (Promega) was also used to detect the DNA fragmentation that is a characteristic feature of apoptotic cells. Following Hoescht staining, the culture slide was washed briefly with distilled water, and further washed by immersing the slide twice for 5 minutes in PBS (137 mM NaCl, 2.68 mM KCl, 1.47 mM KH2PO4, 8.1 mM Na2HPO4), blotting the slide on paper towel between washes. The cells were permeabilized by immersing them in 0.2% Triton X-100 in PBS for 5 minutes. The cells were then washed again by immersing the slide twice for 5 minutes in PBS and blotting the slide on paper towel between washes. 25 μl of equilibration buffer [200 mM potassium cacodylate (pH 6.6), 25 mM. Tris-HCl (pH 6.6), 0.2 mM dithiothreitol, 0.25 mg/ml bovine serum albumin, and 2.5 mM cobalt chloride] was added per well and incubated for 5 to 10 minutes. […] Any cells with brightly stained or fragmented nuclei were scored as apoptotic. […]

Cc1c2oc3c(C)ccc(C(=O)N[C@@H]4C(=O)N[C@H](C(C)C)C(=O)N5CCC[C@H]5C(=O)N(C)CC(=O)N(C)[C@@H](C(C)C)C(=O)O[C@@H]4C)c3nc-2c(C(=O)N[C@@H]2C(=O)N[C@H](C(C)C)C(=O)N3CCC[C@H]3C(=O)N(C)CC(=O)N(C)[C@@H](C(C)C)C(=O)O[C@@H]2C)c(N)c1=O [Actinomycin D] (I: T[dV]P[Sar][NMeV] / II: T[dV]P[Sar][NMeV]; ester I:1-I:C, II:1-II:C; linker I:N-II:N via Actinocin(9to1))
apoptosis-specific eIF-5A protein (RKO cells): upregulated | p53 protein (RKO cells): upregulated

TNF-α
cytotoxic to LC cells [1]: not cytotoxic

interferon gamma: interferon gamma (Roche Diagnostics)
up-regulation of apoptosis-specific eIF-5A [2]: 4 fold

siRNA #2: siRNA against human apoptosis-specific eIF-5A (SEQ ID NO:31); target 5′ AAGATCGTCGAGATGTCTACT 3′ (SEQ ID NO: 82) (AAGAUCGUCGAGAUGUCUACUUC; unmodified RNA; listed as Homo sapiens)
reduce apoptosis of LC cells [3]: 35%

siRNA #3: siRNA against human apoptosis-specific eIF-5A (SEQ ID NO:32); target 5′ AAGGTCCATCTGGTTGGTATT 3′ (SEQ ID NO: 83) (AAGGUCCAUCUGGUUGGUAUUGA; unmodified RNA; listed as Homo sapiens)
reduce apoptosis of LC cells [3]: 50%

siRNA #4: siRNA against human apoptosis-specific eIF-5A (SEQ ID NO:33); target 5′ AAGCTGGACTCCTCCTACACA 3′ (SEQ ID NO: 84) (AAGCTGGACTCCTCCTACACAAT; listed as DNA, chemistry not fully specified; listed as Homo sapiens)
reduce apoptosis of LC cells [3]: 69% | protection from apoptosis relative to the control siRNA ([4]; TUNEL): greater than 60%

siRNA #5: control siRNA (SEQ ID NO:34) with the reverse sequence of siRNA #1; does not target eIF5A (AAAGTCGACCTTCAGTAAGGATT; listed as DNA, chemistry not fully specified; listed as Homo sapiens)
LC cells positive for TUNEL staining ([4]; 3 days after transfection): 46%
